# Measurements from patent US20080318954A1, “Compounds” (Cyclacel Limited, priority 2004, published 2008).
# “Also recorded” adds a separate entry of the source.
# Tests used:
# [1] = system: β-catenin in HEK293 cells; assay: β-catenin accumulation and phosphorylation in HEK293 cells; assay type: cell-based, human; settings: up to 5 μM
# From the text: One of the possible toxicities related to GSK3 inhibition is the accumulation of β-catenin, which has been implicated in the development of colon cancer and melanoma. The effect of example compound XIV on the endogenous levels of β-catenin in HEK293 cells was studied at concentrations that are effective in activation of cellular glycogen synthase.
# CDK1/cyclin B1 = molecular target: T1, CDK1/cyclin B1 (Homo sapiens, UniProt P06493); assay: CDK/cyclin kinase assay, CDK1/cyclin B1; assay type: biochemical
# T1 construct: His6 (N); made in house; host or cells: Sf9 insect cells (baculovirus)
# T1 sequence (P06493 whole entry): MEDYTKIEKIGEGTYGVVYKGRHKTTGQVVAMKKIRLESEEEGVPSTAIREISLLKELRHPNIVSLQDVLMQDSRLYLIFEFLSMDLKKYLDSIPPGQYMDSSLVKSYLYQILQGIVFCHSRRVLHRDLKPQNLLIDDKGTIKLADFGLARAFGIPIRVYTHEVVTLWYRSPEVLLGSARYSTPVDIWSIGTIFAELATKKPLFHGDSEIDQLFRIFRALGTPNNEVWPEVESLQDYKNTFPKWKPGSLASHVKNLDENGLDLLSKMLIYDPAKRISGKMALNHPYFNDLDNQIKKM
# T1 sequence (P14635 whole entry partner): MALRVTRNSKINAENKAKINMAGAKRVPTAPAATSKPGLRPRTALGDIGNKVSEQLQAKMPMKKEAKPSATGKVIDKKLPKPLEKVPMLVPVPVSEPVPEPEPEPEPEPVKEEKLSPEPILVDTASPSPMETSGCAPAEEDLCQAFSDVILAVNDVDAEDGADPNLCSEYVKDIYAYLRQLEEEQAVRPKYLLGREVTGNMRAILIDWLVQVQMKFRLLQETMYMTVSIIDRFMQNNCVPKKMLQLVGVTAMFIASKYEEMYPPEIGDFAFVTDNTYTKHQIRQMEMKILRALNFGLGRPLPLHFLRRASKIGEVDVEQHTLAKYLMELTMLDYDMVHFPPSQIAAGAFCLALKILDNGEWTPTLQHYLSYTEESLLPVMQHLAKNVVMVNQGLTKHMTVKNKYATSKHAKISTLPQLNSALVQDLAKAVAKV
# Protocol: CDK4/cyclin D1, CDK1/cyclin B, CDK2/cyclin E, CDK2/cyclin A, CDK9/cyclin T1 and CDK7/cyclin H, all with a His6 tag on the N-terminus, were expressed in Sf9 insect cells using an appropriate baculovirus construct. Sf9 culture (1.6×10^6 cells/mL) was infected (MOI of 3) for two days. The cells were harvested by low speed centrifugation and the protein was purified from the insect cell pellet by metal affinity chromatography. In short: the insect cell pellet was lysed in Buffer A (10 mM Tris-HCl pH 8.0, 150 mM NaCl, 0.02% NP-40, 5 mM β-mercaptoethanol, 20 mM NaF, 1 mM Na3VO4, and Sigma Protease Inhibitor Cocktail) by sonication. The soluble fraction was cleared by centrifugation and loaded onto Ni-NTA-Agarose (Qiagen). Non-bound protein was washed off with 300 mM NaCl, 5-15 mM imidazole in buffer A and the bound protein was eluted with buffer A supplemented with 250 mM imidazole. The purified proteins were extensively dialyzed against storage buffer (20 mM HEPES pH 7.4, 50 mM NaCl, 2 mM DTT, 1 mM EDTA, 1 mM EGTA, 0.02% NP-40, 10% v/v glycerol) and stored at −70° C.
# Compounds were investigated for their CDK2/cyclin E, CDK2/cyclin A, CDK1/cyclin B, and CDK4/cyclin D1 inhibitory activity. His6-tagged recombinant human cyclin-dependent kinases CDK1/cyclin B1, CDK2/cyclin E, CDK2/cyclin A, and CDK4 were expressed in sf9 insect cells using a baculovirus expression system. Recombinant cyclin D1 was expressed in E. coli. Proteins were purified by metal chelate affinity chromatography to greater than 90% homogeneity. Kinase assays were performed in 96-well plates using recombinant CDK/cyclins. Assays were performed in assay buffer (25 mM β-glycerophosphate, 20 mM MOPS, 5 mM EGTA, 1 mM DTT, 1 mM […], pH 7.4), into which were added 2-4 μg of active enzyme with appropriate substrates (purified histone H1 for CDK1 and CDK2, recombinant GST-retinoblastoma protein (residues 773-928) for CDK4). The reaction was initiated by addition of Mg/ATP mix (15 mM MgCl2+100 μM ATP with 30-50 kBq per well of [γ-^32P]-ATP) and mixtures incubated for 10-45 min, as required, at 30° C. Reactions were stopped on ice, followed by filtration through p81 or GF/C filterplates (for CDK4) (Whatman Polyfiltronics, Kent, UK). After washing 3 times with 75 mM aq orthophosphoric acid, plates were dried, scintillant added and incorporated radioactivity measured in a scintillation counter (TopCount, Packard Instruments, Pangbourne, Berks, UK). Compounds for kinase assays were made up as 10 mM stocks in DMSO and diluted into 10% DMSO in assay buffer. Data was analysed using curve-fitting software (GraphPad Prism version 3.00 for Windows, GraphPad Software, San Diego Calif. USA) to determine IC50 values (concentration of test compound which inhibits kinase activity by 50%).
# SGK = molecular target: T2, SGK (Homo sapiens, UniProt O00141); assay: Protein kinase panel selectivity screen, SGK; assay type: biochemical; settings: 1 μM compound; [ATP] 20 μM
# T2 construct: Dundee University (panel)
# T2 sequence (O00141 whole entry, species assumed): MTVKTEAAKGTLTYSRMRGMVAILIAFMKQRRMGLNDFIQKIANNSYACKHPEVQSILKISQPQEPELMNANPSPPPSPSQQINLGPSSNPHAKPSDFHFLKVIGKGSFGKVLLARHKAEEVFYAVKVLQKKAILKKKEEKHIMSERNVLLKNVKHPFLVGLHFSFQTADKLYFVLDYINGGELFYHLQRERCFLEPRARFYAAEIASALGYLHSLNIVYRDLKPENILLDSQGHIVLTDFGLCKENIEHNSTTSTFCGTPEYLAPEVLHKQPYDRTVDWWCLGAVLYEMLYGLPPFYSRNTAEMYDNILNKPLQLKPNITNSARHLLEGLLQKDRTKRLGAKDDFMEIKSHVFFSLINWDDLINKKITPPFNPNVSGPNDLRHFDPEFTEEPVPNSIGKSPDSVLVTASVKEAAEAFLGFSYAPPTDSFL
# Protocol: (§1) The names of the 29 kinases comprising the selectivity screen, as well as the ATP concentrations used in each kinase case, are given in Table 5. The kinase assays were carried out as described previously.
# (§2) Compound XIV at a concentration of 1 μM was screened in the 29-kinase panel (Dundee University) and the results are shown bellow in Table 6.
# MAPKAP-K2 = molecular target: T3, MAPKAP-K2 (Homo sapiens, UniProt P49137); assay: Protein kinase panel selectivity screen, MAPKAP-K2; assay type: biochemical; settings: 1 μM compound; [ATP] 20 μM
# T3 construct: Dundee University (panel)
# T3 sequence (P49137 whole entry, species assumed): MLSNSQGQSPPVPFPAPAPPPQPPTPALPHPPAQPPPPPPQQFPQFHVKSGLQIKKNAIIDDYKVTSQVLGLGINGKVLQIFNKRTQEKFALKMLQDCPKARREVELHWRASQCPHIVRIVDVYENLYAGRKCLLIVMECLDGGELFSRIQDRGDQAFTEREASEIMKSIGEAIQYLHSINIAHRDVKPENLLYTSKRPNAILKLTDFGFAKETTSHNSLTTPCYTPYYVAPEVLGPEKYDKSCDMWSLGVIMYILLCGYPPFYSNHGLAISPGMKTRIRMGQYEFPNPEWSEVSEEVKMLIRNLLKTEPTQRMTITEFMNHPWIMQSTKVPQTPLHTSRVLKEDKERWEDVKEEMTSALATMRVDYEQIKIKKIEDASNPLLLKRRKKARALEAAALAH
# Protocol: as §1, §2
# JNK/SAPK1c = molecular target: T4, JNK/SAPK1c (Homo sapiens, UniProt P45983); assay: Protein kinase panel selectivity screen, JNK/SAPK1c; assay type: biochemical; settings: 1 μM compound
# T4 construct: Dundee University (panel)
# T4 sequence (P45983 whole entry): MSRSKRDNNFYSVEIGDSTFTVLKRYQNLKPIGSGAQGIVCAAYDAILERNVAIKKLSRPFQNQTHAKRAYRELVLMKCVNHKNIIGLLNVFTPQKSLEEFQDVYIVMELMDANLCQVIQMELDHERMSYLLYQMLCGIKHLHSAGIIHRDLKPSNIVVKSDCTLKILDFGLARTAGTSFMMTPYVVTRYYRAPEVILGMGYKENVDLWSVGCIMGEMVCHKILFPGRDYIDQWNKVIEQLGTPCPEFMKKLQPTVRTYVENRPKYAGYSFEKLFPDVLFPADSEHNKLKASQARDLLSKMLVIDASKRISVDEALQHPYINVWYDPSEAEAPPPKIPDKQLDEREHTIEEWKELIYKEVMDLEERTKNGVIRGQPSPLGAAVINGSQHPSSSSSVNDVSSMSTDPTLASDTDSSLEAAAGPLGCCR
# Protocol: as §1, §2
# SAPK2a/p38 = molecular target: T5, SAPK2a/p38 (Homo sapiens, UniProt Q16539); assay: Protein kinase panel selectivity screen, SAPK2a/p38; assay type: biochemical; settings: 1 μM compound; [ATP] 50 μM
# T5 construct: Dundee University (panel)
# T5 sequence (Q16539 whole entry): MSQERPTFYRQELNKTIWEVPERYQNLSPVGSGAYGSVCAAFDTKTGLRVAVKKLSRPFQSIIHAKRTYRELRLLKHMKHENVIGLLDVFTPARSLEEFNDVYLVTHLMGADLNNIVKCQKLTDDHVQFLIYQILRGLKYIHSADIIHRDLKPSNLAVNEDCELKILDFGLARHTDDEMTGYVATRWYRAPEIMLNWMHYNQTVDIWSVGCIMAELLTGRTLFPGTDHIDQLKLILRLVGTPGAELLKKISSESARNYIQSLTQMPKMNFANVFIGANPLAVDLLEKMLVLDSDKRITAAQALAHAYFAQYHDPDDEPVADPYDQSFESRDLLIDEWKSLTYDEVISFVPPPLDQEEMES
# Protocol: as §1, §2
# [2] = system: β-catenin-LEF/TCF transcriptional activity in HEK293 cells; assay: β-Catenin-LEF/TCF regulated reporter gene assay; assay type: cell-based, human; settings: up to 10 μM
# From the text: Furthermore, the effect of compound XIV on the β-catenin-dependent transcriptional activity, as measured in a luciferase based reporter gene assay, was studied.
# HEK293 cells were transfected with either β-catenin-LEF/TCF-sensitive or β-catenin-LEF/TCF-insensitive reporter vector (Upstate Biotechnology, Inc.) using Lipofectamine Plus reagent (GibcoBRL) according to the manufacturer's instructions. The next day, cells were trypsinized, washed into serum-free medium, counted and seeded at 40,000 cells per well in a 96-well plate. Subsequent to cell attachment, LiCl or GSK-3 inhibitor compound were added to the medium to the required concentrations. Control cells were DMSO vehicle treated. 16 h after inhibitor addition, cells were analyzed for luciferase activity using the Steady-Glo Luciferase assay system (Promega) according to the manufacturer's instructions.
structure (smiles),measurement,setting,value
"Clc1ccc(Nc2nccc(-c3nccs3)n2)cn1 [Compound XIV, (6-Chloro-pyridin-3-yl)-(4-thiazol-2-yl-pyrimidin-2-yl)-amine]",Levels of cellular β-catenin,[1],lack of β-catenin accumulation; also recorded: did not change significantly
same,"Phosphorylation of β-catenin at the GSK3-specific sites S33,37/T41",[1],did not inhibit the phosphorylation
same,Fold selectivity for GSK3 over CDK1/cyclin B,CDK1/cyclin B1; from Ki,">6,250 fold"
same,Ki,CDK1/cyclin B1; read-out: Ki CDK1/cyclin B,> 100 µM
same,IC50,CDK1/cyclin B1; read-out: Kinase inhibition IC50 CDK1/B1,> 100 µM
same,activity at 1 µM,SGK,79 ± 4%
same,activity at 1 µM,MAPKAP-K2,86 ± 7%
same,inhibition at 1 µM,JNK/SAPK1c,~40%
same,activity at 1 µM,JNK/SAPK1c; [ATP] 20 μM,56 ± 4%
same,activity at 1 µM,SAPK2a/p38,84 ± 7%
same,β-catenin transcriptional activity (luciferase reporter),[2],No induction
